Data reported in patent US5387602A, “1.5-diphenyl-3-(N-hydroxycarbamoyloxyalkyl)pyrazoles” (Ortho Pharmaceutical Corporation, priority 1993, dated 1995).

Columns and labels:
[1] = target: T1, RBL-1 Cell Cyclooxygenase (Rattus norvegicus, UniProt Q63921); test: Procedure II: cyclooxygenase inhibition in disrupted RBL-1 cells (supernatant as enzyme source); type: biochemical; conditions: for IC50: read-out: IC50 CO (Procedure II)
T1 construct: the supernatant was saved as the source of enzymes; endogenous in cells; host or cells: RBL-1 (rat basophilic leukemia cells), 10,000×g supernatant of homogenate
T1 sequence (Q63921 27-602): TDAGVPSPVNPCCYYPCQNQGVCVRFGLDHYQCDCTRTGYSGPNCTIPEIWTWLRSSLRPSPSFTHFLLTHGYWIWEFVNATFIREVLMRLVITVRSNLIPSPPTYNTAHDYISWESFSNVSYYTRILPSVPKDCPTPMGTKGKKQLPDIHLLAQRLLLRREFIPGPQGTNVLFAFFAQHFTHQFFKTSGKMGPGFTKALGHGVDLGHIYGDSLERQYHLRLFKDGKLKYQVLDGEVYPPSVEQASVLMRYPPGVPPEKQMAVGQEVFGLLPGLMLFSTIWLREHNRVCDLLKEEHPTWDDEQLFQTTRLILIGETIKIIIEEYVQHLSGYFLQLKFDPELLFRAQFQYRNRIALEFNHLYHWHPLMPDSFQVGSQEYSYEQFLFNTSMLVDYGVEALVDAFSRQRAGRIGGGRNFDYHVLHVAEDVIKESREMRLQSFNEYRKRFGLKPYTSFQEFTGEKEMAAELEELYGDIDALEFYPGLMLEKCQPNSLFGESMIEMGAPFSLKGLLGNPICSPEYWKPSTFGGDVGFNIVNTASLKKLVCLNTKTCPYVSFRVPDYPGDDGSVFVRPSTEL
Experimental: (§1) RBL-1 Cell 5-Lipoxygenase and Cyclooxygenase
(§2) Rat basophilic leukemia cells (RBL-1; 5×10^7 viable cells/mL) were disrupted by homogenization on ice (four 20 sec bursts) with a Brinkman polytron. Complete cell breakage was verified microscopically. The homogenate was then centrifuged at 10,000×g for 48 minutes at 4° C. The pellet was discarded and the supernatant was saved as the source of enzymes. The supernatant was pre-incubated for five minutes at 37° C. in the presence of 2 mM of CaCl2 and compound or vehicle (1% DMSO). The conversion of AA into 5-LO products was initiated by adding 10 μL (50 μCi) of 1-^14 C-AA to each tube and incubated at 37° C. for 20 minutes. The reaction was stopped by adjusting the pH of each sample to 3 to 3.5 with 2M formic acid. Samples were extracted with three volumes of chloroform to isolate the products of 5-LO formed during the reaction. Fractions were dried under nitrogen, then resuspended in 40 μL of chloroform and spotted onto silica gel HL plates. The plates were developed in A-9 solvent. The dried plates were analyzed using a Bioscan Imaging TLC scanner to determine the percentage of radiolabelled AA converted to 5-HETE in each sample.
(§3) In the following tables, the superscripts indicate the number of experiments and, unless otherwise stated, the dose at which % inhibition is reported is 3 MPK.

[2] = target: T2, RBL-1 Cell 5-Lipoxygenase (Rattus norvegicus, UniProt P12527); test: Procedure II: 5-lipoxygenase inhibition in disrupted RBL-1 cells (supernatant as enzyme source); type: biochemical; conditions: for IC50: read-out: IC50 5-LO (Procedure II)
T2 construct: the supernatant was saved as the source of enzymes; endogenous in cells; host or cells: RBL-1 (rat basophilic leukemia cells), 10,000×g supernatant of homogenate
T2 sequence (P12527 1-673): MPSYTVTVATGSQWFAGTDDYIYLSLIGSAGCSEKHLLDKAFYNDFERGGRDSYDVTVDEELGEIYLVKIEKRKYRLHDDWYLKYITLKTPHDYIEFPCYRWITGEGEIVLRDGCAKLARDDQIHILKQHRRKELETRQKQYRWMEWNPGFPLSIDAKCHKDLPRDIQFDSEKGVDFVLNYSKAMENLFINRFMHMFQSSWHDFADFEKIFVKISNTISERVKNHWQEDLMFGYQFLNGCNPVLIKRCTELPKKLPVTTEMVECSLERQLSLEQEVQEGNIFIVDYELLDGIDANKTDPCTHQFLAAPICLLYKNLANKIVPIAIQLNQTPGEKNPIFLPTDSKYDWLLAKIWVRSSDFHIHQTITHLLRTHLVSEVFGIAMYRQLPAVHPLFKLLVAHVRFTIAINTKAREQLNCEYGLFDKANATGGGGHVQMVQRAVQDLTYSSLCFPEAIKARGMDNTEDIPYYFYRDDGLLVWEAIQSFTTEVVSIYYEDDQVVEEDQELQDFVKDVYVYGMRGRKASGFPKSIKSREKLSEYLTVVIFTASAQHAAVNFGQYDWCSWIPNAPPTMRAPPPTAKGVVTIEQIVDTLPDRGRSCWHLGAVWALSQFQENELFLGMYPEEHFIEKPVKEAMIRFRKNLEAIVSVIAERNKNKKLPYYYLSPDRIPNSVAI
Experimental: as §1, §2, §3

CO in intact RBL-1 cells = target: T3, CO in intact RBL-1 cells (Rattus norvegicus, UniProt Q63921); test: Procedure III: inhibition of CO in intact RBL-1 cells; type: cell-based
T3 construct: 5-LO and CO in intact RBL-1 cells; endogenous in cells; host or cells: RBL-1 (rat basophilic leukemia cells), intact
T3 sequence (Q63921 27-602): T1 sequence (Q63921 27-602)
Experimental: (§4) The ability to inhibit 5-LO and CO in intact RBL-1 cells was also evaluated. RBL-1 cells were maintained in culture in minimal essential medium (Bio*Whittaker, Walkersville, Md.), containing 12.5% fetal calf serum, 10 mg/mL streptomycin, 10 I.U./mL penicillin G, […] gentamycin and 2 mM L-glutamine (Bio*Whittaker, Walkersville, Md.). Cells were collected by centrifugation, washed once in HBSS, and resuspended at a concentration of 1×10^5 cells/mL. Cells were incubated in the presence of vehicle or drug then centrifuged at 800×g for 10 minutes at 4° C. The supernatant was removed by aspiration and the cells were resuspended in 0.5 mL of HBSS. The reaction was started by the addition of 20 μg/mL of calcium ionophore A-23187 (mixed calcium and magnesium salts, Calbiochem, La Jolla, Calif.) and allowed to proceed for 15 minutes, then stopped by plunging the tubes into a slush ice bath. The conversion of AA to 5-LO products was initiated by the addition of 10 μL (50 uCi) of 1-^14 C-AA. Products were isolated by acidification and extraction, followed by thin layer chromatography analysis as described above. Radioactive areas corresponding to authentic 5-LO and CO products were quantitated by the Bioscan 2000 Imaging System.
as §3

[3] = target: T4, 5-LO in intact RBL-1 cells (Rattus norvegicus, UniProt P12527); test: Procedure III: inhibition of 5-LO in intact RBL-1 cells; type: cell-based
T4 construct: 5-LO and CO in intact RBL-1 cells; endogenous in cells; host or cells: RBL-1 (rat basophilic leukemia cells), intact
T4 sequence (P12527 1-673): T2 sequence (P12527 1-673)
Experimental: as §4, §3

| SMILES | % INHIBITION CO (Procedure II) [1] [%] | IC50 [1] [nM] | % INHIBITION 5-LO (Procedure II) [2] [%] | IC50 [2] [nM] | IC50 (CO in intact RBL-1 cells) [nM] | IC50 [3] [nM] |
| --- | --- | --- | --- | --- | --- | --- |
| COc1ccc(-n2nc(CCOC(=O)N(C)O)cc2-c2ccc(Cl)cc2)cc1 [2-A] | 44 | 1950 | 82 | 60 | 800 | 1360 |
| COc1ccc(-n2nc(CCOC(=O)N(O)C(C)C)cc2-c2ccc(Cl)cc2)cc1 [2-B] | 55 | 500 | 84 | 100 | 180 | 1980 |
| COc1ccc(-n2nc(CCOC(=O)N(C)O)c(Cl)c2-c2ccc(Cl)cc2)cc1 [2-C] | 41 | 2720 | 69 | 470 | 2700 | 4200 |
| COc1ccc(-n2nc(CCOC(=O)N(O)C(C)C)c(Cl)c2-c2ccc(Cl)cc2)cc1 [2-D] | 1.5 | 250 | 70 | 70 | 1500 | 2300 |
| COc1ccc(-n2nc(CCOC(=O)N(C)O)c(Br)c2-c2ccc(Cl)cc2)cc1 [2-E] | 5.5 | 2700 | 72 | 190 | 2200 | 1100 |
| COc1ccc(-n2nc(CCOC(=O)N(O)C(C)C)c(Br)c2-c2ccc(Cl)cc2)cc1 [2-F] | 4 | 410 | 71 | 140 | 2400 | 1600 |
| COc1ccc(-n2nc(CCOC(=O)N(C)O)cc2-c2ccc(C)cc2)cc1 [2-G] | 100 | 400 | 82 | 640 | 80 | 920 |
| COc1ccc(-n2nc(CCOC(=O)N(O)C(C)C)cc2-c2ccc(C)cc2)cc1 [2-H] | 100 | 40 | 83 | 60 | 40 | 1480 |
| COc1ccc(-n2nc(CCOC(=O)N(C)O)c(Cl)c2-c2ccc(C)cc2)cc1 [2-I] | 52 | 2010 | 78 | 100 | 630 | 1080 |
| COc1ccc(-n2nc(CCOC(=O)N(O)C(C)C)c(Cl)c2-c2ccc(C)cc2)cc1 [2-J] | 42 | 480 | 74 | 30 | 1100 | 3100 |
| COc1ccc(-n2nc(CCOC(=O)NO)c(Br)c2-c2ccc(C)cc2)cc1 [2-K] | 35 | 410 | 59 | 680 | 3200 | 18700 |
| COc1ccc(-n2nc(CCOC(=O)N(C)O)c(Br)c2-c2ccc(C)cc2)cc1 [2-L] | 39 | 830 | 75 | 90 | 1800 | 1200 |
| COc1ccc(-n2nc(CCCOC(=O)NO)cc2-c2ccc(Cl)cc2)cc1 [3-A] | 67 | 3000 | 83 | 3000 | 4600 | 30000 |
| COc1ccc(-n2nc(CCCOC(=O)N(C)O)cc2-c2ccc(Cl)cc2)cc1 [3-B] | 65 | 6340 | 96 | 120 | 420 | 3210 |
| COc1ccc(-n2nc(CCCOC(=O)N(O)C(C)C)cc2-c2ccc(Cl)cc2)cc1 [3-C] | 72 | 1780 | 80 | 30 | 1230 | 1970 |
| COc1ccc(-n2nc(CCCOC(=O)N(C)O)c(Cl)c2-c2ccc(Cl)cc2)cc1 [3-D] | 100 | 2250 | 85 | 100 | 2270 | 820 |
| COc1ccc(-n2nc(CCCOC(=O)N(O)C(C)C)c(Cl)c2-c2ccc(Cl)cc2)cc1 [3-E] | 52 | 17000 | 86 | 70 | 12200 | 2800 |
